In patent US9163032B2, “Esters of DCPLA and methods of treatment using the same” (Blanchette Rockefeller Neurosciences Institute, priority 2011, dated 2015):

How the values were obtained:
GSK-3β = assay: Phospho GSK-3β (Ser-9) Western Blot in ASPD treated primary neurons; assay type: cell-based, rat
Procedure: Phospho GSK-3β expression was normalized against total GSK-3β expression. […] Data are represented as mean±SEM. (Student's t test *.p<0.05; and **, p<0.005 n=3).
Cells were harvested in homogenizing buffer containing 10 mM Tris-Cl (pH 7.4), 1 mM PMSF (phenylmethylsulfonyl fluoride), 1 mM EGTA, 1 mM EDTA, 50 mM NaF, and 20 μM leupeptin, and were lysed by sonication. The homogenate was centrifuged at 100,000×g for 15 min at 4° C. to obtain the cytosolic fraction (supernatant) and membrane (pellet). The pellet was resuspended in the homogenizing buffer by sonication. For whole cell protein isolation from primary neurons, the homogenizing buffer contained 1% Triton X-100. Protein concentration was measured using the Coomassie Plus (Bradford) Protein Assay kit (Pierce, USA). Following quantification, 20 μg of protein from each sample was subjected to SDS-PAGE analysis in a 4-20% gradient Tris-Glycine gel (Invitrogen, USA). The separated protein was then transferred to a nitrocellulose membrane. The membrane was blocked with 5% BSA at room temperature for 15 min and was incubated with primary antibody overnight at 4° C. […] The blot was imaged in an ImageQuant RT-ECL (GE Life Sciences, Piscataway, N.J.) and densitometric quantification was performed using IMAL software (Blanchette Rockefeller Neurosciences Institute, Morgantown, W. Va.). […]

PKC-ε mRNA = PKC-ε mRNA by RT-PCR in primary neurons; assay type: cell-based, rat; conditions: primary neurons treated with ASPD and/or DCPLA-ME, normalized to β-actin
Procedure: RNA was isolated from the cells using Trizol reagent (Invitrogen, USA) following the manufacturer's protocol. Briefly, 5 μg of the total RNA was reverse transcribed using oligo (dT) and Superscript III (Invitrogen, USA) at 50° C. for 1 hr. Two μl of the cDNA product was amplified using primers for PKC-ε (Forward Primer—[…], Reverse primer—[…] (Origene, Rockville, Md.)) and β-actin (Promega, USA) for 30 cycles following standard PCR protocols using a 55° C. annealing temperature. The PCR amplicons were analyzed in an E-Gel (Invitrogen, USA). The gel was imaged using a Fuji Image gel scanner (FLA-9000, Fuji Film) and densitometric quantification was performed using IMAL software (Blanchette Rockefeller Neurosciences Institute, Morgantown, W. Va.). Data were represented as normalized ratio of PKC-ε OD (Optical Density) against β-actin OD for three independent experiments.
Primary neurons were treated with ASPD and/or DCPLA-ME. PKC-ε mRNA was quantified by RT-PCR as described above. RNA prepared from control and treated cultured primary rat hippocampal neurons were isolated and reverse transcribed. Individual cDNA was amplified for PKC-ε and β-actin. PKC-ε expression was normalized to β-actin.

PKC-ε = PKC-ε translocation to membrane in SH-SY5Y neuroblastoma cells (Western Blot); assay type: cell-based, human
Procedure: (§1) Cells were harvested in homogenizing buffer containing 10 mM Tris-Cl (pH 7.4), 1 mM PMSF (phenylmethylsulfonyl fluoride), 1 mM EGTA, 1 mM EDTA, 50 mM NaF, and 20 μM leupeptin, and were lysed by sonication. The homogenate was centrifuged at 100,000×g for 15 min at 4° C. to obtain the cytosolic fraction (supernatant) and membrane (pellet). The pellet was resuspended in the homogenizing buffer by sonication. For whole cell protein isolation from primary neurons, the homogenizing buffer contained 1% Triton X-100. Protein concentration was measured using the Coomassie Plus (Bradford) Protein Assay kit (Pierce, USA). Following quantification, 20 μg of protein from each sample was subjected to SDS-PAGE analysis in a 4-20% gradient Tris-Glycine gel (Invitrogen, USA). The separated protein was then transferred to a nitrocellulose membrane. The membrane was blocked with 5% BSA at room temperature for 15 min and was incubated with primary antibody overnight at 4° C. After the incubation, it was washed three times with TBS-T (Tris Buffered Saline-Tween 20) and further incubated with alkaline phosphatase conjugated secondary antibody (Jackson Immunoresearch Laboratories, USA) at 1:10000 dilution for 45 min. The membrane was finally washed three times with TBS-T and developed using the 1-step NBT-BCIP substrate (Pierce, USA). The blot was imaged in an ImageQuant RT-ECL (GE Life Sciences, Piscataway, N.J.) and densitometric quantification was performed using IMAL software (Blanchette Rockefeller Neurosciences Institute, Morgantown, W. Va.). For translocation assays, PKC activation was represented as the percentage of total protein in the membrane (membrane/cytosol+membrane).

MAP-2 = MAP-2 expression in primary hippocampal neurons (immunofluorescence); assay type: cell-based, rat; conditions: 20 hr
Procedure: (§2) Cells were grown in two chambered slides (Nunc, USA) at low density. For immunofluorescence staining, the cells were washed with PBS (pH 7.4) and fixed with 4% paraformaldehyde for 4 min. Following fixation, the cells were blocked and permeabilized with 5% serum and 0.3% Triton X-100 in 1×PBS for 30 min. Cells were washed three times with 1×PBS and incubated with primary antibodies for 1 hr at 1:100 dilution. After the incubation, the slides were again washed three times in 1×PBS and were incubated with the FITC anti-mouse IgG and Rhodamine anti-rabbit IgG for 1 hr at 1:400 dilution. The cells were further washed and stained with DAPI (4′,6-diamidino-2′-phenylindole, dihydrochloride) (Thermo Scientific, USA) to stain the nucleus. Finally, the slides were washed and mounted in Pro Long Gold antifade mounting solution (Invitrogen, USA) and were viewed under a LSM 710 Meta confocal microscope (Zeiss) at 350 nm, 490 nm, and 540 nm excitation and 470 nm, 525 nm, and 625 nm emission for DAPI, FITC, and Rhodamine respectively. Six individual fields at 63× oil lens magnification were analyzed for the mean fluorescence intensity (MFI) in each channel.
Primary neurons, treated and untreated, were immunostained for MAP-2, synaptophysin, and PSD-95 to determine the synaptic integrity. […]

synaptophysin = assay: Synaptophysin expression in primary hippocampal neurons (immunofluorescence, Western Blot); assay type: cell-based, rat
Procedure: as §2, §1
(§3) To estimate the synaptic damage caused by the ASPDs on primary hippocampal neurons, the expression of synaptophysin (a presynaptic marker) and PSD-95 (a postsynaptic marker) was measured by immunofluorescence staining. […] Following a 20 hr incubation period, the cells were stained for nucleus, PSD-95, and synaptophysin. Expression levels were calculated as the change of percentage in mean fluorescence intensity compared to untreated cells.
(§4) Primary neurons, treated and untreated, were immunostained for MAP-2, synaptophysin, and PSD-95 to determine the synaptic integrity. […] Following a 20 hr incubation period, the cells were stained for MAP-2, PSD-95, and synaptophysin as described above.

[1] = system: cultured primary rat hippocampal neurons; assay: Neuroprotection against ASPD induced toxicity, MTT assay, primary neurons; assay type: cell-based
Procedure: Viability of cells was measured by MTT assay. MTT (i.e., 3-(4,5-dimethylthiazol-2-yl)-2,5-diphenyltetrazolium bromide) is a tetrazolium salt that is cleaved to formazan by the succinate dehydrogenase, which is only active in viable cells. After solubilization of the formazan, the amount of dye can be quantified with a microplate reader at 570 nm along with a reference of 630 nm. For the MTT assay, 5×10^4 primary rat hippocampal neurons from 18-day-old embryonic Sprague-Dawley rat brains or SH-SY5Y cells were plated on each well of 24-well plates coated with poly-D-lysine. After treatment, the cells were washed with 1× PBS and were incubated with 200 μl of 1 mg/ml MTT solution (Sigma, USA) at 37° C. for 2 hr. Then the MTT-solution was removed and the cells were lysed with 200 μl isopropanol containing 0.04 M HCl and […] for 10 min. Finally, the reading was taken at 570 nm and 630 nm. All the samples were done in triplicate and the data were represented as the percentage of control.
Bryostatin 1, DCPLA, and DCPLA-ME were tested against ASPD-induced cytotoxicity to determine their neuroprotective efficacy.

PSD-95 = PSD-95 expression in primary hippocampal neurons (immunofluorescence); assay type: cell-based, rat; conditions: 20 hr
Procedure: as §2, §3, §4

Molecule	phosphorylation of the Ser-9 residue of GSK-3β (GSK-3β; ASPD (50 nM) + DCPLA-ME (100 nM))	PKC-ε transcript levels (PKC-ε mRNA)	PKC-ε translocation in ASPD-treated cells (PKC-ε; ASPD + DCPLA-ME, FIG. 8D)	MAP-2 mean fluorescence intensity (MAP-2; 50 nM ASPD + 100 nM DCPLA-ME)	synaptophysin mean fluorescence intensity (synaptophysin; 50 nM ASPD + 100 nM DCPLA-ME, 20 hr)	more viable than Bryostatin 1-treated cells ([1]; 50 nM ASPD, DCPLA-ME 100 nM vs Bryostatin 1 0.27 nM)	more viable than DCPLA-treated cells ([1]; 50 nM ASPD, DCPLA-ME 100 nM vs DCPLA 10 μM)	PSD-95 mean fluorescence intensity (PSD-95; 50 nM ASPD + 100 nM DCPLA-ME)	GSK-3β activation state (GSK-3β; ASPD 50 nM)	reduction of PKC-ε membrane translocation (PKC-ε; ASPD 50 nM)	PKC-ε membrane translocation (PKC-ε; ASPD 50 nM, relative to control)	MAP-2 mean fluorescence intensity (MAP-2; 50 nM ASPD)	synaptophysin mean fluorescence intensity (synaptophysin; 50 nM ASPD, 20 hr)	synaptophysin mean fluorescence intensity (synaptophysin; 50 nM ASPD, 20 hr, listed as ASPDs)	decrease in synaptophysin intensity (synaptophysin; 50 nM, 20 hr)	decrease of synaptophysin expression (Western Blot) (synaptophysin; ASPD)	synaptophysin expression (Western Blot) (synaptophysin; ASPD, relative to control)	viability of primary neurons ([1]; 50 nM ASPD alone, 20 hr)	PSD-95 mean fluorescence intensity (PSD-95; 50 nM ASPD)	decrease of PSD-95 expression (PSD-95; 50 nM ASPD)
CCCCCC1CC1CC1CC1CCCCCCCC(=O)OC (stereo not drawn) [DCPLA-ME, DCPLA methyl ester]	restored phosphorylation of the Ser-9 residue of GSK-3β to normal levels	increased PKC-ε transcript levels	restored PKC-ε translocation to normal	68.87±2.0 % of control	87.48±3.75 % of control	16%	8%	99.2±11.3 % of control	–	–	–	–	–	–	–	–	–	–	–	–
ASPD: Amylospheroids from Aβ1-42, 100 kDa filter retentate, containing 39 monomers on average	–	did not change PKC-ε mRNA significantly	–	–	–	–	–	–	activated GSK-3β	46%	69.98±3.27%	40.7±6.2 % of control	63.3±3.8 % of control	62.45±6.74 % of control	40%	26%	73.30%	57.6±1.6%	67.63±7.24 % of control	42%
